Test results from ChEMBL document CHEMBL1123294, “Dog coronary artery adenosine receptor: structure of the N6-aryl subregion” (J Med Chem, 1986).

Assays:
[1] = biological target: T1, Adenosine A2 receptor (UniProt P29275+P29274); test: Acidic dissociation constant(pKa) against A2 adenosine receptor of coronary artery; assay type: protein assay; conditions: Canis lupus familiaris
[2] = biological target: T1, Adenosine A2 receptor; test: Association constant against A2 adenosine receptor; assay type: protein assay; conditions: Canis lupus familiaris
[3] = Index of hydrophobicity (k'); assay type: ADME
[4] = biological target: T1, Adenosine A2 receptor; conditions: Canis lupus familiaris
Description: Molar potency ratio (MPR) against adenosine A2 receptor of canine coronary artery

[5] = biological target: T1, Adenosine A2 receptor; test: Maximum increase in coronary flow, percent of control, and nucleoside concentration in coronary plasma at 12 uM; assay type: functional; conditions: Canis lupus familiaris
[6] = biological target: T1, Adenosine A2 receptor; test: Molar potency ratio (MPR) against A2 adenosine receptor of coronary artery; assay type: functional; conditions: Canis lupus familiaris
[7] = Estimated ionization constant(pKa); assay type: physicochemical
[8] = biological target: T1, Adenosine A2 receptor; conditions: Canis lupus familiaris; remark: listed apart in the source
[9] = biological target: T1, Adenosine A2 receptor; test: Maximum increase in coronary flow, percent of control, and nucleoside concentration in coronary plasma at 28 uM; assay type: functional; conditions: Canis lupus familiaris
[10] = biological target: T1, Adenosine A2 receptor; test: Maximum increase in coronary flow, percent of control, and nucleoside concentration in coronary plasma at 17 uM; assay type: functional; conditions: Canis lupus familiaris

T1 sequence (P29274 whole entry, looked up): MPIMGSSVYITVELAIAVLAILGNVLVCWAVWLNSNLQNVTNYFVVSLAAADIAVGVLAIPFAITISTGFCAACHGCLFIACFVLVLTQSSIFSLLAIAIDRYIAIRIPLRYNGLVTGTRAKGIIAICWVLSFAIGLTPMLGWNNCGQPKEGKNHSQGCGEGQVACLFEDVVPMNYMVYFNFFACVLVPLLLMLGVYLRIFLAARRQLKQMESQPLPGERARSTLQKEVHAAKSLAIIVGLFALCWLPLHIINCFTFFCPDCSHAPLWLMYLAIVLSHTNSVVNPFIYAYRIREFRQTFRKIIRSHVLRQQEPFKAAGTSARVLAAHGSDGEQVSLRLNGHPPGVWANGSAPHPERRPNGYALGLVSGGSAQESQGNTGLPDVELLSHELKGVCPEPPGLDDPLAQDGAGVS
T1 sequence (P29275 whole entry, looked up): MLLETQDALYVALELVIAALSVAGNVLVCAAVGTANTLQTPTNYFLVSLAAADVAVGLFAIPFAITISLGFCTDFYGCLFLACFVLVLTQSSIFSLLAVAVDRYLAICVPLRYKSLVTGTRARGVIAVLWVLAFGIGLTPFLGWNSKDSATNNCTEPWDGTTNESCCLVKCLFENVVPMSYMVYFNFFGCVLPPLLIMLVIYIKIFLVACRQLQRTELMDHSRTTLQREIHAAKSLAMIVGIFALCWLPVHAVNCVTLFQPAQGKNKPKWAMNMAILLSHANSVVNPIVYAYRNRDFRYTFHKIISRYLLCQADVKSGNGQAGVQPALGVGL

Row | pka [1] | k' [3] | MPR [4] | Structure (SMILES) | other results
1 | 2.73 | 1.29 | 1.4 | OC[C@H]1O[C@@H](n2cnc3c(Nc4ccccc4)ncnc32)[C@H](O)[C@@H]1O [N6-PHENYLADENOSINE] | K [2]: 3160 M⁻¹
2 | – | 6.43 | – | Cc1cc(C)cc(Nc2ncnc3c2ncn3C2O[C@H](CO)[C@@H](O)[C@H]2O)c1 (some centres undefined) | Activity [5]: 4%
3 | 3.27 | 3.64 | 0.67 | OC[C@H]1OC(n2cnc3c(NCCc4ccccc4Cl)ncnc32)[C@H](O)[C@@H]1O (some centres undefined) | K [2]: 32400 M⁻¹
4 | 2.65 | 1.68 | 1.5 | OC[C@H]1OC(n2cnc3c(Nc4ccc(F)cc4)ncnc32)[C@H](O)[C@@H]1O (some centres undefined) | K [2]: 3560 M⁻¹
5 | 3.32 | 2.39 | 2.1 | OC[C@H]1OC(n2cnc3c(NCCc4ccc(F)cc4)ncnc32)[C@H](O)[C@@H]1O (some centres undefined) | K [2]: 10300 M⁻¹
6 | 3.3 | 2.31 | – | COc1ccccc1CNc1ncnc2c1ncn2[C@@H]1O[C@H](CO)[C@@H](O)[C@H]1O | MPR [6]: 0.7
7 | 2.66 | 2.36 | 0.43 | OC[C@H]1OC(n2cnc3c(Nc4cccc(F)c4)ncnc32)[C@H](O)[C@@H]1O (some centres undefined) | K [2]: 6360 M⁻¹
8 | 3.08 | 1.57 | 0.57 | OC[C@H]1OC(n2cnc3c(NCc4ccccc4F)ncnc32)[C@H](O)[C@@H]1O (some centres undefined) | –
9 | 3.49 | 1.93 | 0.29 | COc1ccc(CCNc2ncnc3c2ncn3C2O[C@H](CO)[C@@H](O)[C@H]2O)cc1 (some centres undefined) | –
10 | 2.59 | 1.32 | 0.26 | COc1cccc(Nc2ncnc3c2ncn3C2O[C@H](CO)[C@@H](O)[C@H]2O)c1 (some centres undefined) | –
11 | 2.76 | 2.36 | 0.42 | OC[C@H]1OC(n2cnc3c(Nc4ccccc4Cl)ncnc32)[C@H](O)[C@@H]1O (some centres undefined) | –
12 | – | 2.57 | 1.2 | COc1ccccc1CCNc1ncnc2c1ncn2C1O[C@H](CO)[C@@H](O)[C@H]1O (some centres undefined) | pKa [7]: 3.56
13 | 3.06 | 3.12 | 1.2 | OC[C@H]1O[C@@H](n2cnc3c(NCc4ccccc4Cl)ncnc32)[C@H](O)[C@@H]1O | –
14 | – | – | – | C[C@H](Cc1ccccc1)Nc1ncnc2c1ncn2[C@@H]1O[C@H](CO)[C@@H](O)[C@H]1O (stereo in doubt; 1) | MPR [8]: 4.3
15 | 3.19 | 2.36 | 1.9 | OC[C@H]1OC(n2cnc3c(NCCc4ccccc4F)ncnc32)[C@H](O)[C@@H]1O (some centres undefined) | –
16 | 2.98 | 1.4 | 0.65 | Cc1ccccc1Nc1ncnc2c1ncn2C1O[C@H](CO)[C@@H](O)[C@H]1O (some centres undefined) | –
17 | 3.23 | 4.07 | 0.41 | OC[C@H]1OC(n2cnc3c(NCCc4ccc(Cl)cc4)ncnc32)[C@H](O)[C@@H]1O (some centres undefined) | –
18 | 2.8 | 1.54 | – | COc1cc(Nc2ncnc3c2ncn3C2O[C@H](CO)[C@@H](O)[C@H]2O)cc(OC)c1OC (some centres undefined) | Activity [9]: 28%
19 | 2.97 | 1.93 | 0.28 | COc1ccccc1Nc1ncnc2c1ncn2C1O[C@H](CO)[C@@H](O)[C@H]1O (some centres undefined) | –
20 | 3.32 | 4.52 | 0.67 | Cc1ccccc1CCNc1ncnc2c1ncn2C1O[C@H](CO)[C@@H](O)[C@H]1O (some centres undefined) | –
21 | 2.79 | 3.28 | 0.023 | Cc1cccc(Nc2ncnc3c2ncn3C2O[C@H](CO)[C@@H](O)[C@H]2O)c1 (some centres undefined) | –
22 | 3.19 | 3.04 | 0.04 | Cc1ccc(CNc2ncnc3c2ncn3[C@@H]2O[C@H](CO)[C@@H](O)[C@H]2O)cc1 | –
23 | – | 4.89 | – | OC[C@H]1OC(n2cnc3c(NC4CCc5ccccc5C4)ncnc32)[C@H](O)[C@@H]1O (some centres undefined) | MPR [8]: 0.14
24 | – | 1.52 | – | Cc1cccc(C)c1Nc1ncnc2c1ncn2C1O[C@H](CO)[C@@H](O)[C@H]1O (some centres undefined) | Activity [10]: 22%
25 | 3.06 | 1.66 | – | COc1ccc(CNc2ncnc3c2ncn3[C@@H]2O[C@H](CO)[C@@H](O)[C@H]2O)cc1 | MPR [8]: 0.04
26 | < 1 | 0.38 | 3 | OC[C@H]1OC(n2cnc3c(NCCc4cccnc4)ncnc32)[C@H](O)[C@@H]1O (some centres undefined) | –
27 | < 1 | 0.32 | 0.42 | OC[C@H]1OC(n2cnc3c(NCCc4ccncc4)ncnc32)[C@H](O)[C@@H]1O (some centres undefined) | –
28 | 2.61 | 5.05 | 0.2 | OC[C@H]1OC(n2cnc3c(Nc4cccc(Cl)c4)ncnc32)[C@H](O)[C@@H]1O (some centres undefined) | –
